Results on 15 molecules are retold here after article PMC10094593, “Chemical Space Virtual Screening against Hard-to-Drug RNA Methyltransferases DNMT2 and NSUN6” (International Journal of Molecular Sciences, 2023).

Read-outs that look alike come from different tables or passages of the source.

The target in test [1] is T1, NSUN6 (Homo sapiens, UniProt Q8TEA1).
T1 construct: host or cells: E. coli Rosetta2
T1 sequence (Q8TEA1 1-469): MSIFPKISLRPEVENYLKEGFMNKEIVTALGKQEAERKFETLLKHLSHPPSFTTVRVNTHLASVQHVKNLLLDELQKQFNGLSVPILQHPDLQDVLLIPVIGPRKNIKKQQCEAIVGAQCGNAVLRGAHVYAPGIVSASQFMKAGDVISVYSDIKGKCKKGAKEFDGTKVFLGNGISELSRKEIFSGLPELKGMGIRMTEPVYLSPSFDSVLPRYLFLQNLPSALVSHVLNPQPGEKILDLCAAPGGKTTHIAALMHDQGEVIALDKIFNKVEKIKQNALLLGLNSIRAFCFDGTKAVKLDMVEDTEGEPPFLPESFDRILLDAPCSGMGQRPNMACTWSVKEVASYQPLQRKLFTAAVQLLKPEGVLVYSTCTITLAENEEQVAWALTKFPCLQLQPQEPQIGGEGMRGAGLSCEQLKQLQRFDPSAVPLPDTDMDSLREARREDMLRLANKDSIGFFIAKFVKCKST
Briefly: Microscale thermophoresis (MST) binding assay, NSUN6. Particulars: for Kd: MST dose-response curve; for MST pre-screening: ligand concentration 33, 100, 300 µM. As for the experimental part:
(§1) Since the constructs of DNMT2 and NSUN6 contain hexa-histidine tags, proteins were labeled using a Monolith His-Tag Labeling Kit RED-Tris-NTA 2nd generation according to the manufacturer’s instructions. This labeling strategy was chosen since it should prevent any interference with the actual binding site of the proteins. Labeled protein was diluted to a concentration of 20 nM into MST buffer (50 mM Hepes, pH 7.5, 150 mM NaCl, 10 mM MgCl2, 1 mM DTT, 0.05% polysorbate-20, 0.1% PEG-8000). All compounds were prepared as stocks dissolved in DMSO to a concentration of 50 mM. […] All measurements were performed on a Monolith Pico instrument (NanoTemper Technologies, Muenchen, Germany) with red light. To induce thermophoresis, medium MST power was selected for DNMT2 and high MST power for NSUN6. All experiments were performed in quadruplicates. […] Obtained dilutions were then mixed 1:1 with labeled protein (20 nM) and incubated for 5 min at room temperature prior to measurement. Experiments were performed in duplicates. All data received were analyzed using the MO. Affinity Analysis software version 2.3 (NanoTemper Technologies, Muenchen, Germany).
(Microscale thermophoresis detects binding through changes in fluorescence in a small temperature gradient.)

Test [2] has as its target T2, DNMT2 (Homo sapiens, UniProt O14717).
T2 construct: made in house; host or cells: E. coli Rosetta2
T2 sequence (O14717 1-391): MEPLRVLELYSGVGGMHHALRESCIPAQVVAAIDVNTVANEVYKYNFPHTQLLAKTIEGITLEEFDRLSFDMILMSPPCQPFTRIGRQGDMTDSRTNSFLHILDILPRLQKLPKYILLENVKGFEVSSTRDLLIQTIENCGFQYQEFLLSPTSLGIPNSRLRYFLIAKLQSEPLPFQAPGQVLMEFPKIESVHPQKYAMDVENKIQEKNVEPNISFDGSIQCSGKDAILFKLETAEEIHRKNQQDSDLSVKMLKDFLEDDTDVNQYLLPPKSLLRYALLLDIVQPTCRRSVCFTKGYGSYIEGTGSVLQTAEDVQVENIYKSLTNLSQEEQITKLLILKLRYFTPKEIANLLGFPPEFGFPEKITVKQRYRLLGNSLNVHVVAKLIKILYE
Briefly: Microscale thermophoresis (MST) binding assay, DNMT2. Particulars: for MST pre-screening: DNMT2, ligand concentration 33, 100, 300 µM. As for the experimental part:
as §1

The mark [3] stands for this setting: NSUN6, ≥ = lower limit, upper plateau not completely reached, read-out: KD,app.

With `CN1CCN(CC[C@@H](N)C(=O)Nc2ccc(-n3ccc(O)n3)c(F)c2)CC1` (racemic) [Compound 2.1], the Kd in test [1] (setting [3]) is ≥ 369 µM. Besides, in test [1] (NSUN6), the MST pre-screening result was “concentration-dependent MST-shift (binding)”.

As for `Cn1cnc([C@@H]2CNC[C@H]2C(=O)N2CCC[C@@H](CNC(=O)[C@H]3CCCN3)C2)c1` (racemic) [Compound 2.4], the Kd in test [1] (setting [3]) came out at 16.4 µM. The MST pre-screening result in test [1] (NSUN6) is recorded as “concentration-dependent MST-shift (binding)”.

Turning to `Cc1n[nH]c(C)c1NC(=O)CN1CCN(C(=O)c2ccc(C(N)=O)s2)CC1` [Compound 1.2], in test [2], the MST pre-screening result was “no concentration-dependent MST-shift (no binding)”.

For the molecule `CNC(=O)c1cccc(CN[C@H]2CCCN(C(=O)c3coc(C(N)=O)c3)C2)c1` [Compound 1.3], the MST pre-screening result in test [2] is listed as “no concentration-dependent MST-shift (no binding)”.

As to `O=C(NCCN/C(O)=C1\N=CC=CC1=O)Nc1cccc2c1CNC2=O` [Compound 1.4], in test [1] (setting [3]), the Kd is 12 µM.

In the case of `CNC(=O)c1cccc(CN2CCC[C@H](NC(=O)c3coc(C(N)=O)c3)C2)c1` [Compound 1.5], the MST pre-screening result in test [2] is reported as “no concentration-dependent MST-shift (no binding)”.

Take `C[C@@H](NC(=O)Nc1ccc(C(N)=O)c(F)c1)c1cccc(N2CCOC2=O)c1` [Compound 1.9]: the MST pre-screening entry in test [2] was “no concentration-dependent MST-shift (no binding)”.

As to `O=C(NCc1cccc2ncccc12)Nc1ccc(C[C@H]2NC(=O)NC2=O)cc1` [Compound 1.12], the MST pre-screening entry in test [2] is listed as “no concentration-dependent MST-shift (no binding)”.

Take `Nc1ncnc2cc(C(=O)NCC(=O)Nc3ccc4c(c3)OCCO4)ccc12` [Compound 1.14]: the Kd in test [1] (setting [3]) was ≥ 116 µM.

Take `Cc1ccc(F)c(-n2cc(O)c(C(=O)NNc3cc(O)nc4ncccc34)n2)c1` [Compound 1.16]: the MST pre-screening result in test [2] is “no concentration-dependent MST-shift (no binding)”.

Regarding `N[C@H](CCS(N)(=O)=O)C(=O)Nc1ccc(C2CCNCC2)cc1` [Compound 2.3], the MST pre-screening result in test [1] (NSUN6) was “no concentration-dependent MST-shift (no binding)”.

On to `CN1CCC[C@@H]1CCC(=O)Nc1c[nH]nc1C(=O)NCC(N)=O` [Compound 2.6], for which the MST pre-screening entry in test [1] (NSUN6) is “no concentration-dependent MST-shift (no binding)”.

`COc1ccc(C(=O)Nc2cccc(CN[C@H](CN)CO)c2)cc1` [Compound 2.8]: the “MST result DNMT2 ('off-target'/selectivity)” value in test [2] (no MST shift at ligand concentration of up to 300 µM) was “[drawing 33] No binding”. The “selectivity for NSUN6 over DNMT2” value in test [2] (selective = no MST shift for the other enzyme up to 300 µM) is recorded as “selectivity”. In addition, the Kd in test [1] (setting [3]) came out at 42 µM. For the same molecule, the MST pre-screening entry in test [1] (NSUN6) is recorded as “concentration-dependent MST-shift (binding)”.

As to `O=C([C@@H]1NC[C@@H](O)[C@H]1O)N1CCN([C@@H]2CCN(c3ccccc3)C2=O)CC1` [Compound 2.11], the MST pre-screening result in test [1] (NSUN6) is “no concentration-dependent MST-shift (no binding)”.

Consider `Nc1ncnc2c1ncn2[C@@H]1O[C@H](CSCC[C@H](N)C(=O)O)[C@@H](O)[C@H]1O` [SAH, S-adenosyl-L-homocysteine, reference compound], for which the Kd was found to be 11.8 µM in test [2] (MST dose-response curve, DNMT2, reference ligand) and 9.1 µM in test [1] (NSUN6, reference ligand, read-out: KD).
